In patent publication US20100137221A1, “PEPTIDES THAT INTERACT WITH TOPOISOMERASE I AND METHODS THEREOF” (UNIVERSITY UTAH RESEARCH FOUNDATION, priority 2007, published 2010):
“Also recorded” adds a separate entry of the source. Like-named read-outs stand apart in the source and are kept apart here. Values belong to the molecule of their own block, whether it stands above or below them. No end group written: not given here.

Experiments:
[1] = molecular target: T1, 100 kDa top1 (Homo sapiens, UniProt P11387); assay: top1-mediated DNA relaxation assay (supercoiled pBR322); type: biochemical; conditions: 1 μM peptide
T1 construct: made in house; host or cells: Sf9 insect cells (baculovirus) or human placenta
T1 sequence (P11387 1-765): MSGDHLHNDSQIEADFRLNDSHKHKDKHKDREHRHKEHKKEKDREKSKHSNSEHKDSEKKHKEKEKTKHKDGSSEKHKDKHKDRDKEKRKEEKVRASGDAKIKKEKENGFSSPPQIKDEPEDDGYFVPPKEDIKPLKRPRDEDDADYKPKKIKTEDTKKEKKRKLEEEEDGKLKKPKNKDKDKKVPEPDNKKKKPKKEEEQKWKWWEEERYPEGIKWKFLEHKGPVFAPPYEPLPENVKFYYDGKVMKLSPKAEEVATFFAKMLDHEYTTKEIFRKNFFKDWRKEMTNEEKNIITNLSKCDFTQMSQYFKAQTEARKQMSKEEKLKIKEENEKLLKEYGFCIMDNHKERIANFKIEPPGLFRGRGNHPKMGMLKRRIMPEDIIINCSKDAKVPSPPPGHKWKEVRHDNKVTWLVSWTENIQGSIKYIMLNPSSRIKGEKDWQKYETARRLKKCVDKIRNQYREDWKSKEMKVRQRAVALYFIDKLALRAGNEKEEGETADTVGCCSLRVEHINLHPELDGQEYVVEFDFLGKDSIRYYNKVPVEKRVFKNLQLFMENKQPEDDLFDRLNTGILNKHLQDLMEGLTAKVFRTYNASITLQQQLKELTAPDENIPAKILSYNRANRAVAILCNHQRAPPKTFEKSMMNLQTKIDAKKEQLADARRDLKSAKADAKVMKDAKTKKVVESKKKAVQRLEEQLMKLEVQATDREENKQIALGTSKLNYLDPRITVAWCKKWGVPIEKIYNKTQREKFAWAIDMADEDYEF
Protocol: Top1 relaxation/cleavage activity assays: Peptides were assayed for their ability to interfere with or enhance relaxation of supercoiled DNA mediated by 100 kDa top1. The top1 and pBR322 were combined in a top1-reaction buffer (150 mM KCl, 12 mM MgCl2, 2 mM EDTA, 50 mM Tris HCl pH 7.5) at 37° C. for 30 minutes with 1 μM peptide. The 20 μl reactions were stopped with 1.0 μl of 1% SDS. Digestion of protein was performed by addition of 1.0 μg proteinase K for 30 minutes at 37° C., loaded with 5 μl of a standard 5×bromphenol blue/glycerol loading buffer and run in an 0.8% agarose gel in TAE (0.04 M Tris-acetate and 1.0 mM EDTA). DNA cleavage assays were performed in 20 μl volumes of reaction buffer (50 mM Tris-HCl (pH 7.5), 100 mM KCl, 10 mM MgCl2 0.5 mM EDTA, 0.2 mg/ml BSA), 500 ng of radiaolabeled (^3H thymidine) supercoiled rf (replicative form) M13 mp 19 DNA and 112 ng of top1. The reactions were incubated for 30 minutes at 30° C. and then treated with 1 μl of 1 mg/ml proteinase K in 0.05% SDS for an additional 30 minutes at 37° C. to transform the 9AC-top1-DNA complexes into nicked DNA. This was followed by electrophoresis in an 0.8% agarose-TAE gel containing ethidium bromide. […] Percent cleavage was determined by liquid scintillation counting of excised bands using the method described by Marshall et al. (Marshall 2003).

[2] = molecular target: T2, top1 (Homo sapiens, UniProt P11387); conditions: surface plasmon resonance
T2 sequence (P11387 1-765): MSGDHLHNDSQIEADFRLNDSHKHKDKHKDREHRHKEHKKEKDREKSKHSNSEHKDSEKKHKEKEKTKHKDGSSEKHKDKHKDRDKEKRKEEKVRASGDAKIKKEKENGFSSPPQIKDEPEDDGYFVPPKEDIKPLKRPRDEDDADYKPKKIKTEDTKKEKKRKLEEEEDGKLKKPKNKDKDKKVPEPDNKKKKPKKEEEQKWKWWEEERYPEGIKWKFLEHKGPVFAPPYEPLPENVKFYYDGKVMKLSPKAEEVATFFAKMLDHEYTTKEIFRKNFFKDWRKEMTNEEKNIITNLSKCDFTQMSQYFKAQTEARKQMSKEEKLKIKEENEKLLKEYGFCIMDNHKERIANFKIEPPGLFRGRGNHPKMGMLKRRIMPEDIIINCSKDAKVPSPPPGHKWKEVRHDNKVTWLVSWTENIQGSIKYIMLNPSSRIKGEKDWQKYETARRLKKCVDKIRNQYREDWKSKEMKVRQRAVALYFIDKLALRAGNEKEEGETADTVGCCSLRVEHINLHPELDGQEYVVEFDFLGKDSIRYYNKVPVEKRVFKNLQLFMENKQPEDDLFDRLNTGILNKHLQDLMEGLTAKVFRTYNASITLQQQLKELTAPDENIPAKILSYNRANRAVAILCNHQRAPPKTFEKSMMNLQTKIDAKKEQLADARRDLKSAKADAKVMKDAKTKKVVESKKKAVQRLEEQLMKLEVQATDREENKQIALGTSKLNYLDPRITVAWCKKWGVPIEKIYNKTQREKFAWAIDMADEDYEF
Protocol: Binding analysis: The binding analysis of the peptides was performed on a BIAcore 2000 instrument. A four channel CM5 sensor chip was derivatized with three top1 binding peptides (T1BPs 1, 2 and 4) and a control surface left blank. Catalytically active top1 was used as the mobile or analyte phase and diluted in 150 mM NaCl, 30 mM HEPES, 0.05% P20 and injected at various concentrations (8.0, 4.0, 2.0, 1.0 and 0.4 nM) through the instrument's microfluidics sample handling system at a flow rate of 30 μl/minute. With each injection of a particular concentration of top1, association and dissociation data for three peptides were generated. Binding constants were determined using the BIAevaluation 2.1 software.

[3] = molecular target: T2, top1; assay: Biosensor binding specificity, top1 versus topoisomerase II and tubulin over T1BP2 surface; set-up: made in house; host or cells: Sf9 insect cells (baculovirus) or human placenta; conditions: 8.0 nM of each protein injected over T1BP2 channel
Protocol: These top1 experiments were evaluated with BIAevaluation Software 3.1 using Langmuir Kinetics to model the interaction. The accuracy of the fit to the model is illustrated by dashed lines representing actual data and narrow lines representing the fitted curves.

[4] = molecular target: T2, top1; assay: DNA cleavage complex assay with 9AC; type: biochemical; set-up: made in house; host or cells: Sf9 insect cells (baculovirus) or human placenta
Protocol: Top1 relaxation/cleavage activity assays: Peptides were assayed for their ability to interfere with or enhance relaxation of supercoiled DNA mediated by 100 kDa top1. The top1 and pBR322 were combined in a top1-reaction buffer (150 mM KCl, 12 mM MgCl2, 2 mM EDTA, 50 mM Tris HCl pH 7.5) at 37° C. for 30 minutes with 1 μM peptide. The 20 μl reactions were stopped with 1.0 μl of 1% SDS. Digestion of protein was performed by addition of 1.0 μg proteinase K for 30 minutes at 37° C., loaded with 5 μl of a standard 5×bromphenol blue/glycerol loading buffer and run in an 0.8% agarose gel in TAE (0.04 M Tris-acetate and 1.0 mM EDTA). […] The reactions were incubated for 30 minutes at 30° C. and then treated with 1 μl of 1 mg/ml proteinase K in 0.05% SDS for an additional 30 minutes at 37° C. to transform the 9AC-top1-DNA complexes into nicked DNA. This was followed by electrophoresis in an 0.8% agarose-TAE gel containing ethidium bromide. A control set of experiments and log serial dilutions of peptide were examined for each peptide. Percent cleavage was determined by liquid scintillation counting of excised bands using the method described by Marshall et al. (Marshall 2003).

[5] = molecular target: T3, human topoisomerase I (human, UniProt P11387 1-765, limits assumed); assay: phage display biopanning against top1-DNA-9AC, analytical titering against top1
T3 construct: also called top1; top 1
T3 sequence (looked up): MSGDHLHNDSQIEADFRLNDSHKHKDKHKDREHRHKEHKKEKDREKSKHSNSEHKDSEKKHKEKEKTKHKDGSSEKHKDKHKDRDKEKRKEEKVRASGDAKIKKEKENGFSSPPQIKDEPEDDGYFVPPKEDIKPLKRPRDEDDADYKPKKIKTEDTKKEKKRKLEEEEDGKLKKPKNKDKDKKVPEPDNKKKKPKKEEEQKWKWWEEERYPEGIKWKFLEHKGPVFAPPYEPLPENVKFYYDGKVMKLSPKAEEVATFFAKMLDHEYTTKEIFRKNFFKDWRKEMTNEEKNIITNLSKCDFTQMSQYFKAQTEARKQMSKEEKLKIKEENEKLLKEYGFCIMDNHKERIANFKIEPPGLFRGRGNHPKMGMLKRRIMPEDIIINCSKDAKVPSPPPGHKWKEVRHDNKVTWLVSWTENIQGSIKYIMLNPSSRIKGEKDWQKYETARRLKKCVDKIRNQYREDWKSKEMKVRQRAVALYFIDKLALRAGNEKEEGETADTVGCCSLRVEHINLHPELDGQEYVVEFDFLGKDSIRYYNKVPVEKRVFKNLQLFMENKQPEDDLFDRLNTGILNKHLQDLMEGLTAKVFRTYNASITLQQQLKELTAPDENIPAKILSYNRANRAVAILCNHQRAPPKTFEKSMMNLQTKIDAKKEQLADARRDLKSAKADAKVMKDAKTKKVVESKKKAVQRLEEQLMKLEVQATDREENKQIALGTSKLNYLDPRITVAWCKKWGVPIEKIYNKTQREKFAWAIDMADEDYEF
Protocol: Phage display: Phage display was performed as described by Smith (Parmley 1989). Briefly, top1 was first biotinylated with a biotin derivative containing a spacer engineered to reduced steric interference (Pierce EZ-Link Biotin-PEO-Amine). The reaction was performed at a 5:1 molar ratio of biotin:top1 in 10 mM HEPES (pH 8.2) buffered 500 mM NaCl. The unreacted biotin was removed by gel filtration in a Biospin 30 column (BioRad) and biotinylated top1 was assayed for activity using a pull down method with streptavidin coated beads. The biotinylated top1 maintained catalytic activity. For phage display, 20 μg biotinylated top1 was reacted with a mixture of pBR322 and 9AC and 20 μg was applied to a 30 mm plastic petri dish coated with 10 μg of neutravidin (Pierce). The dish was then blocked with 3.0% bovine serum albumin, and 10 μl of a 10⁹/μl titer phage library in 100 μl TBS-0.05% Tween was added. Phage were allowed to associate with gentle rocking for 2 hours at 4° C., and then washed repeatedly over 2 hours at 4° C. with buffered saline containing 0.1% Tween. […]
Analytical titering: Ten μl of amplified phage clones (approximately 10¹² cfu) were incubated in 50 nM top1 for one hour at 4° C. on a rocker. […] Competent E. coli were added directly to the washed plates and the output assessed by counting a 10⁻⁶ dilution of the culture on tetracycline plates (FIG. 1). […]

[6] = molecular target: T3, human topoisomerase I; assay: SPR (BIAcore), 100 kDa top1 applied at 1, 2.5, 5, 10 and 20 nM to the CPP4 flow cell, global fit [right panel]
Protocol: Top 1 was applied to flow cells in 1, 2.5, 5, 10 and 20 nM concentrations. The overlaying curves represent the actual data for a given concentration of top 1 and the “fit” curves. Data were fit using the BIAeval 3000 global fitting software.

Molecule: SAYAATVRGPLSSAS [T1BP2, SAYAATVRGPLSSAS]
effect on top1-mediated DNA relaxation [1]: slight ability to inhibit top1-mediated relaxation; also recorded: Inhibition of top1 relaxation (slight increase in supercoiled DNA remaining)
affinity for top1 (in words) [2]: high nanomolar affinity
affinity for top1 (in words) ([2]; listed as T1PB2): mid-nanomolar affinity
binding specificity for top1 verses topoisomerase II and tubulin [3]: specificity for top1
effect on cleavage (in words) ([4]; 0.45 μM 9AC, 20 ng top1): increase in cleavage at all but one concentration
increase in cleavage complex formation ([4]; 0.45 μM and 0.9 μM 9AC, through the range of peptide concentrations tested): approximately 50%

binding result [5]: binds
Molecule: RNQGPVKMVFPIAPS (also called CPP5) [T1BP4]

binding result [6]: binds
Molecule: DRVPLVHVIFNSFGY (also called CPP4) [T1BP3]

binding result [5]: binds
B1: T1BP5 (peptide)
peptide: EGQFTFPRGASE
notes: 12-mer, truncated due to a stop codon; also called CPP6; EGQFTFPRGASE
